The source of these data is ChEMBL document CHEMBL4265917, “Antibacterial and antioxidant activities for natural and synthetic dual-active compounds” (Eur J Med Chem, 2018).

Assay [1] has as its system Escherichia coli. Briefly: Antibacterial activity against Escherichia coli after 16 hrs by broth microdilution method. The format is functional. In general terms: Dilution methods test growth across graded concentrations, often in twofold steps.
The subject of assay [2] is Staphylococcus aureus. Briefly: Antibacterial activity against Staphylococcus aureus after 16 hrs by broth microdilution method. Type of assay: functional.
Assay [3] concerns Staphylococcus aureus. In words: Bactericidal activity against Staphylococcus aureus incubated for 24 hrs measured every 30 mins by spectrophotometric analysis. The format is functional.
A short description of assay [4]: Antioxidant activity assessed as DPPH free radical scavenging activity. The format is functional. In general terms: The DPPH test is a chemical assay of radical scavenging.
In assay [5] the test system is Staphylococcus aureus. In words: Antibacterial activity against methicillin-resistant Staphylococcus aureus after 24 hrs by microbroth dilution method. Type of assay: functional.
Assay [6] has as its system Bacillus mycoides. In words: Antibacterial activity against Bacillus mycoides FSB 1 after 18 to 24 hrs by microdilution method. The format is functional.
The subject of assay [7] is Bacillus subtilis. Briefly: Antibacterial activity against Bacillus subtilis FSB 2 after 18 to 24 hrs by microdilution method. Type of assay: functional.
Assay [8] deals with Micrococcus luteus. In words: Antibacterial activity against Micrococcus lysodeikticus ATCC 4698 after 18 to 24 hrs by microdilution method. The format is functional.
Assay [9] deals with Staphylococcus aureus. Briefly: Antibacterial activity against Staphylococcus aureus ATCC 25923 after 18 to 24 hrs by microdilution method. The format is functional.
The test system of assay [10] is Staphylococcus aureus. In words: Antibacterial activity against Staphylococcus aureus FSB 30 after 18 to 24 hrs by microdilution method. Type of assay: functional.
Assay [11] relates to Azotobacter chroococcum. In words: Antibacterial activity against Azotobacter chroococcum FSB 14 after 18 to 24 hrs by microdilution method. The format is functional.
The test system of assay [12] is Enterobacter cloacae. Briefly: Antibacterial activity against Enterobacter cloacae FSB 22 after 18 to 24 hrs by microdilution method. Type of assay: functional.
In assay [13] the test system is Pectobacterium carotovorum. In words: Antibacterial activity against Erwinia carotovora FSB 31 after 18 to 24 hrs by microdilution method. Type of assay: functional.
In assay [14] the test system is Escherichia coli. Briefly: Antibacterial activity against Escherichia coli ATCC 25922 after 18 to 24 hrs by microdilution method. Type of assay: functional.
Assay [15] deals with Klebsiella pneumoniae. In words: Antibacterial activity against Klebsiella pneumoniae FSB 26 after 18 to 24 hrs by microdilution method. The format is functional.
The subject of assay [16] is Pseudomonas fluorescens. Briefly: Antibacterial activity against Pseudomonas fluorescens FSB 28 after 18 to 24 hrs by microdilution method. The format is functional.
Assay [17] has as its system Pseudomonas syringae. Briefly: Antibacterial activity against Pseudomonas glycinea FSB 40 after 18 to 24 hrs by microdilution method. Type of assay: functional, Pseudomonas savastanoi pv. glycinea.
The subject of assay [18] is Pseudomonas savastanoi pv. phaseolicola. Briefly: Antibacterial activity against Pseudomonas phaseolicola FSB 29 after 18 to 24 hrs by microdilution method. The format is functional.
Assay [19] is described as follows: Antioxidant activity assessed as DPPH free radical scavenging activity after 30 to 60 mins by UV-vis spectrophotometric analysis. Type of assay: functional.
For assay [20], the system named is Escherichia coli. Briefly: Antibacterial activity against Escherichia coli K-12 MG1655 assessed as bacterial growth inhibition after 24 hrs by serial dilutoin method. The format is functional. As to conditions: K-12 substr. MG1655, 24 h.
Assay [21] is described as follows: Antioxidant activity assessed as DPPH free radical scavenging activity incubated for 30 min by UV-vis spectrophotometric analysis. Type of assay: functional.
A short description of assay [22]: Antioxidant activity assessed as DPPH free radical scavenging activity incubated for 30 mins in dark condition. Type of assay: functional.
The subject of assay [23] is Escherichia coli. In words: Antibacterial activity against Escherichia coli KCTC 1924 after 20 to 36 hrs by disc diffusion method. The format is functional. (In general: In agar diffusion tests the substance spreads into inoculated agar from a disc or well.)
Assay [24] concerns Staphylococcus aureus. In words: Antibacterial activity against Staphylococcus aureus KCTC 1916 after 20 to 36 hrs by disc diffusion method. Type of assay: functional.
For assay [25], the system named is Staphylococcus aureus. In words: Antibacterial activity against methicillin-resistant Staphylococcus aureus. Type of assay: functional.

The structures appear in SMILES notation. Converted amounts (≈) assume the structure as drawn.

Take `Cc1ccc(C(C)C)cc1O` [CARVACROL]: the figures for the MIC in assay [1] and in [2] were 2.5 µg/mL (≈ 16.6 µM) and 1.25 µg/mL (≈ 8.32 µM), respectively.

In turn, `COc1ccccc1O` [GUAIACOL] registered a minimal bactericidal concentration (MBC) in assay [3] not below 15 mM. In assay [4], the 50% inhibitory concentration (IC50) amounted to 4.1 µg/mL (≈ 33 µM).

In turn, `COc1cc(/C=C/c2cc(/C=C/c3ccc(OCC(=O)Nc4cccc(C(F)(F)F)c4)c(OC)c3)[nH]n2)ccc1OCC(=O)Nc1cccc(C(F)(F)F)c1` showed an MIC in assay [5] of 10 to 20 µg/mL (≈ 13 to 26.1 µM).

As to `O=C(/C=C/c1ccc(O)c(O)c1)O[C@@H]1C[C@@](O)(C(=O)O)C[C@@H](O)[C@@H]1O`, the concentration giving a half-maximal response (EC50) in [4] stood at 13.4 µg/mL (≈ 37.8 µM).

The compound `COc1cc(/C=C/c2cc(/C=C/c3ccc(OCC(=O)NC45CC6CC(CC(C6)C4)C5)c(OC)c3)[nH]n2)ccc1OCC(=O)NC12CC3CC(CC(C3)C1)C2` yielded an MIC in [5] of 10 to 20 µg/mL (≈ 13.4 to 26.8 µM).

With `CC(Nc1ccc([N+](=O)[O-])cc1)c1c(O)c2ccccc2oc1=O` (centres undefined), the minimum inhibitory concentration (MIC) in assay [6], in [7], in [8], in assay [9], in [10] and in [11] was 3.9 to 31.2 µg/mL (≈ 12 to 95.6 µM) each time. Further, the MIC in assay [12], in assay [13], in assay [14], in assay [15], in assay [16] and in [17] was 3.9 to 31.2 µg/mL (≈ 12 to 95.6 µM) each time. The compound also yielded a minimal inhibitory concentration (MIC) in assay [18] of 3.9 to 31.2 µg/mL (≈ 12 to 95.6 µM). Also, in assay [19], the half-maximal inhibitory concentration (IC50) is 26 µM.

In assay [5], `COc1cc(/C=C/c2cc(/C=C/c3ccc(OCC(=O)Nc4ccccc4)c(OC)c3)[nH]n2)ccc1OCC(=O)Nc1ccccc1` returned an MIC of 10 to 20 µg/mL (≈ 15.9 to 31.7 µM).

`O=C(/C=C/c1ccc(O)c(O)c1)O[C@H](Cc1ccc(O)c(O)c1)C(=O)O` [ROSMARINIC ACID]: the MIC in assay [20] is 250 µg/mL (≈ 694 µM). For the same compound, the IC50 in assay [21] amounted to 0.4 µg/mL (≈ 1.11 µM).

For the compound `Cc1c(-c2cc(-c3ccc(F)cc3)nc(N)n2)nnn1-c1ccc(Cl)c(Cl)c1`, the IC50 in assay [22] was 59.07 µg/mL (≈ 142 µM).

As for `Oc1ccc2cc(Br)ccc2c1-c1c[nH]c2ccccc12`, the EC50 in assay [21] came out at 3.8 µg/mL (≈ 11.2 µM). Further, the minimum inhibitory concentration (MIC) in [23] stood at 5.32 µg/mL (≈ 15.7 µM); in [24], 14.8 µg/mL (≈ 43.8 µM).

Turning to `Oc1ccc2ccccc2c1-c1c[nH]c2ccc(F)cc12`, the EC50 in [21] was found to be 3 µg/mL (≈ 10.8 µM). For the same compound, the figures for the minimal inhibitory concentration (MIC) in assay [23] and in [24] were 8.71 µg/mL (≈ 31.4 µM) and 7.32 µg/mL (≈ 26.4 µM), respectively.

In the case of `COc1cc(/C=C/c2cc(/C=C/c3ccc(OCC(=O)Nc4ccc(C)cc4)c(OC)c3)[nH]n2)ccc1OCC(=O)Nc1ccc(C)cc1`, the minimum inhibitory concentration (MIC) in assay [5] lay within 10 to 20 µg/mL (≈ 15.2 to 30.4 µM).

Regarding `COc1cc(/C=C/c2cc(/C=C/c3ccc(OCC(=O)N[C@@H](C)c4ccccc4)c(OC)c3)[nH]n2)ccc1OCC(=O)N[C@@H](C)c1ccccc1`, the MIC in assay [5] lay in the range of 10 to 20 µg/mL (≈ 14.6 to 29.1 µM).

As for `COc1cc(/C=C/C(=O)CC(=O)/C=C/c2ccc(O)c(OC)c2)ccc1O` [CURCUMIN], the IC50 in assay [4] amounted to 28 µg/mL (≈ 76 µM). Moreover, in assay [25], the MIC fell in the range of 125 to 250 µg/mL (≈ 339 to 679 µM).

Turning to `Cc1ccc(C(C)C)c(O)c1` [THYMOL], the minimum inhibitory concentration (MIC) in [1] and in assay [2] was 2.5 µg/mL (≈ 16.6 µM) in each case.

On to `C=CCc1ccc(O)c(OC)c1` [EUGENOL], for which the MIC in [1] and in assay [2] was 2.5 µg/mL (≈ 15.2 µM) throughout.

The term MIC denotes the smallest concentration in the dilution series that meets the test's criterion for growth inhibition. A word on the MBC: it is the smallest concentration meeting the test's criterion for killing. Low readings indicate more potent killing, high ones less potent killing. In general, IC50 refers to the concentration that gives 50% inhibition. What is called EC50 is the concentration at which the effect is half-maximal.
